For test [1], the target named is Mcl-1 protein (Homo sapiens, UniProt Q07820). The experiment in a line: Inhibition of Mcl-1 by the fluorescence polarisation technique (Method 1 or Method 2). Format: binding. Particulars: fluorescence polarisation, Fluorescein labelled ligand; Method 1 (not underlined) or Method 2 (underlined); read-out: IC50 (μM) Mcl-1 FP. Put shortly: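 Fluorescence polarisation competition of 11-point compound dilutions (5% DMSO final) against fluorescein-labelled ligand for Mcl-1. Method 1: 1 nM ligand, 5 nM protein in 10 mM HEPES, 150 mM NaCl, 0.05% Tween 20, pH 7.4; Method 2: 10 nM ligand, 10 nM protein in 20 mM Na2HPO4, 1 mM EDTA, 50 mM NaCl, pH 7.4.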
Sequence of Mcl-1 protein (Q07820 whole entry): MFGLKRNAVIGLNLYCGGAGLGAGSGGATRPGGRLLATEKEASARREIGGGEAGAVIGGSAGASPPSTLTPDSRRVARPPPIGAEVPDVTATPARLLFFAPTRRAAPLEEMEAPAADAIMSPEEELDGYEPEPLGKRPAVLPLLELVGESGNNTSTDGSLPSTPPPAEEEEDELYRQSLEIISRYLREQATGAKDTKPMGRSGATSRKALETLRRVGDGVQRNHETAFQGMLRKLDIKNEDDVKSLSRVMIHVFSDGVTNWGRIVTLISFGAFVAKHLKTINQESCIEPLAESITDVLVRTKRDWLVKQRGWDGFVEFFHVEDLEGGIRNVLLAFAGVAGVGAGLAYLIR

Test [2] concerns H929 multiple myeloma tumour line. The experiment in a line: In vitro cytotoxicity, MTT assay, 48 hours. Format: cell-based. Particulars: H929 cells, 48 hours exposure, cell viability. The protocol:
The cytotoxicity studies were carried out on the H929 multiple myeloma tumour line.
The cells are distributed onto microplates and exposed to the test compounds for 48 hours.

In test [3] the test system is cleaved form of PARP in AMO-1 tumour cells. The experiment in a line: Quantification of the cleaved form of PARP in vivo (AMO-1 xenograft, MSD ELISA). Also noted: species or system mice (SCID strain). Particulars: activation factor: cleaved PARP in treated mice / control mice, SCID mice, intraveinous or oral routes. The protocol: The ability of the compounds of the invention to induce apoptosis, by measuring cleaved PARP levels, is evaluated in a xenograft model of AMO-1 multiple myeloma cells. 1·10^7 AMO-1 cells are grafted sub-cutaneously into immunosuppressed mice (SCID strain). 12 to 14 days after the graft, the animals are treated by intraveinous or oral routes with the various compounds. After treatment, the tumour masses are recovered and lysed, and the cleaved form of PARP is quantified in the tumour lysates.
The quantification is carried out using the “Meso Scale Discovery (MSD) ELISA platform” test, which specifically assays the cleaved form of PARP. It is expressed in the form of an activation factor corresponding to the ratio between the quantity of cleaved PARP in the treated mice divided by the quantity of cleaved PARP in the control mice.

Take `CCOC(=O)C(Cc1ccccc1OCc1ccnc(-c2ccccc2OC)n1)Nc1ncnc2sc(-c3ccc(F)cc3)c(-c3ccc(OCCN4CCN(C)CC4)c(Cl)c3C)c12` [Example 256, ethyl N-[(5Sa)-5-{3-chloro-2-methyl-4-[2-(4-methylpiperazin-1-yl)ethoxy]phenyl}-6-(4-fluorophenyl)thieno[2,3-d]pyrimidin-4-yl]-2-{[2-(2-methoxyphenyl)pyrimidin-4-yl]methoxy}-D-phenylalaninate]: the IC50 in test [1] was 1.61 µM; in test [2] (Homo sapiens, NCI-H929), above 600 nM. In test [3], the PARP fold is given as 99.5.
Take `CC#Cc1sc2ncnc(NC(Cc3ccccc3OCc3ccnc(OCC(F)(F)F)n3)C(=O)O)c2c1-c1ccc(OCCN2CCN(C)CC2)c(Cl)c1C` [Example 44, N-[(5Sa)-5-{3-chloro-2-methyl-4-[2-(4-methylpiperazin-1-yl)ethoxy]phenyl}-6-(prop-1-yn-1-yl)thieno[2,3-d]pyrimidin-4-yl]-2-{[2-(2,2,2-trifluoroethoxy)pyrimidin-4-yl]methoxy}-D-phenylalanine]: the IC50 in test [1] was determined as 0.007 µM; in test [2] (Homo sapiens, NCI-H929), 3.44 nM. The same compound showed a PARP fold in test [3] of 85.8.
Turning to `CC#Cc1sc2ncnc(NC(Cc3ccccc3OCc3ccnc(-c4ccccc4OC)n3)C(=O)OCC)c2c1-c1ccc(OCCN(C)C)c(Cl)c1C` [Example 259, ethyl N-[(5Sa)-5-{3-chloro-4-[2-(dimethylamino)ethoxy]-2-methylphenyl}-6-(prop-1-yn-1-yl)thieno[2,3-d]pyrimidin-4-yl]-2-{[2-(2-methoxyphenyl)pyrimidin-4-yl]methoxy}-D-phenylalaninate], the IC50 in test [1] is 1.35 µM; in test [2] (Homo sapiens, NCI-H929), above 600 nM. In test [3], this compound displayed a PARP fold of 134.4.
The like results for `CC#Cc1sc2ncnc(NC(Cc3ccccc3OCc3ccnn3C(C)(C)C)C(=O)O)c2c1-c1ccc(OCCN2CCN(C)CC2)c(Cl)c1C` [Example 40, 2-[(1-tert-butyl-1H-pyrazol-5-yl)methoxy]-N-[(5Sa)-5-{3-chloro-2-methyl-4-[2-(4-methylpiperazin-1-yl)ethoxy]phenyl}-6-(prop-1-yn-1-yl)thieno[2,3-d]pyrimidin-4-yl]-D-phenylalanine] were, in that order, 0.006 µM, 32.8 nM and 114.3.
As for `CC#Cc1sc2ncnc(NC(Cc3ccccc3OCc3ccnc(N4CCOCC4)n3)C(=O)O)c2c1-c1ccc(OCCN2CCN(C)CC2)c(Cl)c1C` [Example 43, N-[(5Sa)-5-{3-chloro-2-methyl-4-[2-(4-methylpiperazin-1-yl)ethoxy]phenyl}-6-(prop-1-yn-1-yl)thieno[2,3-d]pyrimidin-4-yl]-2-{[2-(morpholin-4-yl)pyrimidin-4-yl]methoxy}-D-phenylalanine], the IC50 in test [1] was 0.006 µM; in test [2] (Homo sapiens, NCI-H929), 12.5 nM. In test [3], the PARP fold was 114.6.
Consider `CC#Cc1sc2ncnc(N[C@H](Cc3ccccc3OCc3ccnc(-c4ccccc4OC)n3)C(=O)O)c2c1-c1ccc(OCCN(C)C)c(Cl)c1C` [Example 49, N-[(5Sa)-5-{3-chloro-4-[2-(dimethylamino)ethoxy]-2-methylphenyl}-6-(prop-1-yn-1-yl)thieno[2,3-d]pyrimidin-4-yl]-2-{[2-(2-methoxyphenyl)pyrimidin-4-yl]methoxy}-D-phenylalanine], for which the values for the IC50 in test [1] and in test [2] were 0.003 µM and 4.12 nM, respectively. For the same compound, the PARP fold in test [3] was 138.8.
Consider `COCCOc1ccccc1-c1nccc(COc2ccccc2CC(Nc2ncnc3sc(-c4ccc(F)cc4)c(-c4ccc(OCCN(C)C)c(Cl)c4C)c23)C(=O)O)n1` [Example 51, N-[(5Sa)-5-{3-chloro-4-[2-(dimethylamino)ethoxy]-2-methylphenyl}-6-(4-fluorophenyl)thieno[2,3-d]pyrimidin-4-yl]-2-({2-[2-(2-methoxyethoxy)phenyl]pyrimidin-4-yl}methoxy)-D-phenylalanine], for which the IC50 turned out to be 0.005 µM in test [1] and 23.3 nM in test [2] (Homo sapiens, NCI-H929). Further, in test [3], the PARP fold was 52.2.
For `CCOc1nccc(COc2ccccc2CC(Nc2ncnc3sc(-c4ccc(F)o4)c(-c4ccc(OCCN5CCN(C)CC5)c(Cl)c4C)c23)C(=O)O)n1` [Example 22, N-[(5Sa)-5-{3-chloro-2-methyl-4-[2-(4-methylpiperazin-1-yl)ethoxy]phenyl}-6-(5-fluorofuran-2-yl)thieno[2,3-d]pyrimidin-4-yl]-2-[(2-ethoxypyrimidin-4-yl)methoxy]-D-phenylalanine], the 50% inhibitory concentration (IC50) in test [1] was determined as 0.002 µM; in test [2] (Homo sapiens, NCI-H929), 8.59 nM. Also, the PARP fold in test [3] worked out at 222.2.
As for `CC#Cc1sc2ncnc(NC(Cc3ccccc3OCc3ccnc(-c4ccccc4OC)n3)C(=O)OCC)c2c1-c1ccc(OCCN2CCN(C)CC2)c(Cl)c1C` [Example 258, ethyl N-[(5Sa)-5-{3-chloro-2-methyl-4-[2-(4-methylpiperazin-1-yl)ethoxy]phenyl}-6-(prop-1-yn-1-yl)thieno[2,3-d]pyrimidin-4-yl]-2-{[2-(2-methoxyphenyl)pyrimidin-4-yl]methoxy}-D-phenylalaninate], the IC50 in test [1] is 1.07 µM; in test [2] (Homo sapiens, NCI-H929), 428 nM. Besides, in test [3], the PARP fold is 132.3.
As for `Cc1c(-c2c(-c3ccc(F)o3)sc3ncnc(NC(Cc4ccccc4OCc4ccnc(OCC(F)(F)F)n4)C(=O)O)c23)ccc(OCCN2CCN(C)CC2)c1Cl` [Example 26, N-[(5Sa)-5-{3-chloro-2-methyl-4-[2-(4-methylpiperazin-1-yl)ethoxy]phenyl}-6-(5-fluorofuran-2-yl)thieno[2,3-d]pyrimidin-4-yl]-2-{[2-(2,2,2-trifluoroethoxy)pyrimidin-4-yl]methoxy}-D-phenylalanine], the IC50 turned out to be 0.012 µM in test [1] and 6.36 nM in test [2] (Homo sapiens, NCI-H929).
As to `COc1ccccc1CC(Nc1ncnc2sc(-c3ccc(F)o3)c(-c3ccc(OCCN4CCN(C)CC4)c(Cl)c3C)c12)C(=O)O` [Example 16, N-[(5Sa)-5-{3-chloro-2-methyl-4-[2-(4-methylpiperazin-1-yl)ethoxy]phenyl}-6-(5-fluorofuran-2-yl)thieno[2,3-d]pyrimidin-4-yl]-2-methoxy-D-phenylalanine], the concentration for half-maximal inhibition (IC50) was found to be 0.006 µM in test [1] and 99.3 nM in test [2] (Homo sapiens, NCI-H929).

The values are drawn from patent US10457687B2, “Aminoacid derivatives, a process for their preparation and pharmaceutical compositions containing them” (LES LABORATOIRES SERVIER, priority 2015, dated 2019).
